Marks after values point to notes of the source that are not given here.

The conditions of series [1]: from http://www.drugbank.ca/drugs/DB00482; cited from earlier work.
For a further series, the system named is human liver S9. Put plainly: Sulfation by human liver S9. Format: in vitro ADME. How it is done:
(§1) FIG. 5D is a bar graph illustrating in vitro metabolism of phenolics. Glucuronidation rates of 6a1-6a4 by human liver and intestinal microsomes. Additional metabolic rates of various locally bioavailable COX-2 inhibitors are in Table 4. […]. The incubation systems were: for glucuronidation, 0.88 mM magnesium chloride (MgCl2), 4.4 mM saccharolactone, 0.022 mg/mL alamethicin, 3.5 mM uridine 5′-diphospho-glucuronic acid (UDPGA), 10 μM substrates and different concentrations of microsomes in 50 mM potassium phosphate buffer (pH 7.4); for sulfation, 10 mM dithiothreitol (DTT), 5 mM MgCl2, 100 μM 3′-phosphoadenosine-5′-phosphosulfate (PAPS),10 μM substrate and different concentrations of S9 fractions in 50 mM potassium phosphate buffer (pH 7.4).
(§2) In vitro tools were employed to help predict the in vivo metabolism rates of the COX-2 inhibitors that are phenolics. The microsomes and S9 fractions prepared from colon or liver were used to determine the in vivo glucuronidation and sulfation rates of the phenolic compounds, respectively. By employing microsomes and S9 fractions prepared from both rats and humans, it could be determined if the results obtained in the rat model could be reasonably extrapolated to humans. In these experiments, raloxifene and genistein, two phenolic compounds which undergo extensive first-pass metabolism, were selected as controls.

Series [2] concerns human intestine microsomes. Put plainly: Glucuronidation by human intestine microsomes. It is filed as in vitro ADME. The settings on record: human. How it is done: as §1, §2
The test system of a further series is rat colon S9. Put plainly: Sulfation by rat colon S9 fractions. It is filed as in vitro ADME. How it is done: as §1, with “FIG. 5C” for “FIG. 5D”, “of phenolics via sulfonation pathway. Sulfation” for “of phenolics. Glucuronidation”, “by rat” for “by human”, “and colon S9 fractions.” for “and intestinal microsomes.”, “Table 3.” for “Table 4.”, “μM 3′-phosphoadeno sine-5′-phosphosulfate” for “μM 3′-phosphoadenosine-5′-phosphosulfate”
as §2

A further series deals with rat liver S9. Put plainly: Sulfation by rat liver S9 fractions. Format: in vitro ADME. As for the experimental part: as §1, with “FIG. 5C” for “FIG. 5D”, “of phenolics via sulfonation pathway. Sulfation” for “of phenolics. Glucuronidation”, “by rat” for “by human”, “and colon S9 fractions.” for “and intestinal microsomes.”, “Table 3.” for “Table 4.”, “μM 3′-phosphoadeno sine-5′-phosphosulfate” for “μM 3′-phosphoadenosine-5′-phosphosulfate”
as §2

Another series has as its system rat liver microsomes. Put plainly: Glucuronidation by rat liver microsomes. Format: in vitro ADME. The settings on record: rat. As for the experimental part:
as §1, with “FIG. 5A” for “FIG. 5D”, “of phenolics via glucuronidation pathway.” for “of phenolics.”, “of all the new locally bioavailable COX-2 inhibitors” for “of 6a1-6a4”, “by rat” for “by human”, “liver” for “liver and intestinal”, “Table 3.” for “Table 4.”
as §2

The test system of the next series is rat colon microsomes. Put plainly: Glucuronidation by rat colon microsomes. The settings on record: rat. Format: in vitro ADME. As for the experimental part:
FIG. 5B is a bar graph illustrating in vitro glucuronidation of phenolics in liver and colon microsomes of rats. Glucuronidation rates of 6a1-6a4 by rat liver and colon microsomes were measured. Additional metabolic rates of various locally bioavailable COX-2 inhibitors are in Table 3. […]. The incubation systems were: for glucuronidation, 0.88 mM magnesium chloride (MgCl2), 4.4 mM saccharolactone, 0.022 mg/mL alamethicin, 3.5 mM uridine 5′-diphospho-glucuronic acid (UDPGA), 10 μM substrates and different concentrations of microsomes in 50 mM potassium phosphate buffer (pH 7.4); for sulfation, 10 mM dithiothreitol (DTT), 5 mM MgCl2, 100 μM 3′-phosphoadenosine-5′-phosphosulfate (PAPS), 10 μM substrate and different concentrations of S9 fractions in 50 mM potassium phosphate buffer (pH 7.4).
as §2

In a further series the test system is human intestine S9. Put plainly: Sulfation by human intestine S9. It is filed as in vitro ADME. How it is done:
as §1, §2

Another series concerns human liver microsomes. Put plainly: Glucuronidation by human liver microsomes. Format: in vitro ADME. The settings on record: human. As for the experimental part: as §1, §2

In the case of `Cc1ccc(-c2cc(C(F)(F)F)nn2-c2ccc(S(N)(=O)=O)cc2)cc1` [Celecoxib, celecoxib], the LogP in series [1] is 4.01^b.

For the compound `O=c1c(-c2ccc(O)cc2)coc2cc(O)cc(O)c12` [Genistein, reference compound], the “Sulfation rates by liver S9 (Mean)” value was determined as 24 pmol/mg/min in the series on human liver S9 (substrate 10 μM) and 77 pmol/mg/min in the series with rat liver S9 (substrate 10 μM). Moreover, in series [2] (substrate 10 μM), the “Glucuronidation rates by intestine microsomes (Mean)” value was found to be 4665 pmol/mg/min. Also, the “Sulfation rates by colon S9 (Mean)” value with rat colon S9 (substrate 10 μM) was 4 pmol/mg/min. Further, the “Glucuronidation rates by liver microsomes (Mean)” value was found to be 2199 pmol/mg/min with rat liver microsomes (substrate 10 μM) and 965 pmol/mg/min in the series on human liver microsomes (substrate 10 μM). Besides, the “Glucuronidation rates by colon microsomes (Mean)” value in the series on rat colon microsomes (substrate 10 μM) worked out at 142 pmol/mg/min. In the series on human intestine S9 (substrate 10 μM), the “Sulfation rates by human intestine S9 (Mean)” value is 46 pmol/mg/min.

`O=C(c1ccc(OCCN2CCCCC2)cc1)c1c(-c2ccc(O)cc2)sc2cc(O)ccc12` [Raloxifene, reference compound]: the “Sulfation rates by liver S9 (Mean)” value was 19 pmol/mg/min in the series on human liver S9 (10 μM, pH 7.4) and 100 pmol/mg/min with rat liver S9 (10 μM, pH 7.4). Besides, in series [2] (10 μM, pH 7.4), the “Glucuronidation rates by intestine microsomes (Mean)” value was found to be 2846 pmol/mg/min. Also, in the series with rat colon S9 (10 μM, pH 7.4), the “Sulfation rates by colon S9 (Mean)” value turned out to be 0 pmol/mg/min. Moreover, the “Glucuronidation rates by liver microsomes (Mean)” value amounted to 402 pmol/mg/min with rat liver microsomes (10 μM, pH 7.4) and 681 pmol/mg/min with human liver microsomes (10 μM, pH 7.4). The “Glucuronidation rates by colon microsomes (Mean)” value with rat colon microsomes (10 μM, pH 7.4) amounted to 54 pmol/mg/min. Also, the “Sulfation rates by human intestine S9 (Mean)” value in the series with human intestine S9 (10 μM, pH 7.4) worked out at 58 pmol/mg/min.
